Source: patent publication US8349835B2, “Aromatic ring fused triazine derivatives and uses thereof” (Shenyang Pharmaceutical University, priority 2008, dated 2013)

How the values were obtained:
VEGFR-2 = VEGFR-2 (Homo sapiens, UniProt P35968); experiment: VEGFR-2 inhibition rate test (kinase assay kit, colorimetric ELISA); conditions: concentration not given
Rat aortic ring = experiment: Rat Aortic Ring Assay; format: cell-based; conditions: for Rat Aortic Ring Assay (10 ug/ml), result in words: observed on the sixth day; for inhibition at 10 µg/mL: Rattus norvegicus, 10 ug/ml
Description: Rat Aortic Ring Assay • 1) 6 week old SD […] (Sprague Dawley) were selected for the experiments. Cleaned abdominal skin with 75% ethanol to disinfect, and then anesthetized the mice with ether, • 2) Carefully removed the abdominal aortas and transferred the aortas to normal saline. Excessive vascular tissues were carefully removed with scissors. • 3) The aortas were rinsed with normal saline until no blood stain remained. • 4) Sectioned the aortas into one millimeter depth arterial slices with ophthalmological scissors. • 5) Add 50 μL pre-thawed Matrigel to each well of the pre-cooled 96 well cell culture plates, and embedded the ring-shaped mouse aortas in collagen gel. • 6) Incubated for 60 minutes at 37° C. to solidificate the gel. • 7) Added DMEM culture solution containing 10% FBS, along with different concentrations of the selected compounds into the wells and cultured in the incubator. Every compound was repeated in no less than 3 wells. • 8) Replaced with the fresh medium and changed the medicine once on the third day. • 9) Took out the pates on the sixth day, and observed the vascular growth with Microscope (OLYMPUS, DP70, Japan) and took photographs(×100). Randomly chose 3 arterial rings to photograph and calculated the area covered by micro-vascular with Image Pro Plus software. The inhibition rate is calculated as:
[formula] • Evaluation criteria: ⋆inhibition rate[…]; ⋆⋆inhibition rate 60-90%; ⋆⋆⋆inhibition rate>90%.

[1] = compared with blank control, sixth day

Chain of VEGFR-2 (P35968 20-1356): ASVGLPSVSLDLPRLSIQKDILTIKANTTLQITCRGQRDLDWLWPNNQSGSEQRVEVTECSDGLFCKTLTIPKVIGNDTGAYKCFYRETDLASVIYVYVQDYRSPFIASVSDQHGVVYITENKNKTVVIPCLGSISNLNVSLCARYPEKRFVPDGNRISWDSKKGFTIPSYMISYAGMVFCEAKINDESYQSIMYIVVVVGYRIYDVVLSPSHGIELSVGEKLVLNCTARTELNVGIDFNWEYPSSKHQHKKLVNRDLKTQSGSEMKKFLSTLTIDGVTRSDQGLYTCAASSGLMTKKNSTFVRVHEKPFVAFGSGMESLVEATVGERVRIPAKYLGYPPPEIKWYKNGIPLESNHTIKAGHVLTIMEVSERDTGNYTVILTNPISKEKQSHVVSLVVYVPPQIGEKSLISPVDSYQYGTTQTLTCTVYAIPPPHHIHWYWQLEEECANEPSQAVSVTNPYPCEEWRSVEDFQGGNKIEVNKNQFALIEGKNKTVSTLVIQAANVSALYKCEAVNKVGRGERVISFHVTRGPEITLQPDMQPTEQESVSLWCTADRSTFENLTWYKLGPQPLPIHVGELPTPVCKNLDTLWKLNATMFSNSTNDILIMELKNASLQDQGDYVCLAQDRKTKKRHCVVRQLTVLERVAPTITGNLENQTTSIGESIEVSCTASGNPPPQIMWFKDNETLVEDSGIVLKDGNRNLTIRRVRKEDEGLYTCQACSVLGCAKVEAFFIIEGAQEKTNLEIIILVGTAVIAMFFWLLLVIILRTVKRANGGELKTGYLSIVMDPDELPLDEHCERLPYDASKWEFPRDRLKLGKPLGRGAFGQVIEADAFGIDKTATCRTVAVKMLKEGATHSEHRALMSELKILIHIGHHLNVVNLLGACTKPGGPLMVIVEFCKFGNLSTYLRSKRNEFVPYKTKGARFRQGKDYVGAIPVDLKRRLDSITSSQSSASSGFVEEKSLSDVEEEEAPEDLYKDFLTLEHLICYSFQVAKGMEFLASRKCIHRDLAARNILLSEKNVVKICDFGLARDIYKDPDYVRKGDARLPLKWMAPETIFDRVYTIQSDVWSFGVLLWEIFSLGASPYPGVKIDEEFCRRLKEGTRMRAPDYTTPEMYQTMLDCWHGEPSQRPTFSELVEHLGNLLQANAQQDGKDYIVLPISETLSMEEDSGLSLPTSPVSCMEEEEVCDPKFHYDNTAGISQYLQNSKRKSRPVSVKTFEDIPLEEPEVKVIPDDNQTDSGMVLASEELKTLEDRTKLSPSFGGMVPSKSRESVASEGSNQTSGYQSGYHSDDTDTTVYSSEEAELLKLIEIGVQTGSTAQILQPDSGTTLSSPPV

Row | Kinase inhibition rate (VEGFR-2) (VEGFR-2) | SMILES | other results
1 | 3.47 | Fc1ccc(Nc2nnnc3ccccc23)cc1Cl [Example 1, 4-(3-chloro-4-fluoroanilino)-benzo[d][1,2,3]triazine] | 
2 | −22.99 | Fc1ccc(Nc2nnnc3ccccc23)cc1 [Example 2, 4-(4-fluoroanilino)-benzo[d][1,2,3]triazine] | 
3 | −5.34 | Fc1cc(F)cc(Nc2nnnc3ccccc23)c1 [Example 5, 4-(3,5-difluoroanilino)-benzo[d][1,2,3]triazine] | 
4 | −6.95 | Fc1cc(Nc2nnnc3ccccc23)ccc1Br [Example 8, 4-(3-fluoro-4-bromoanilino)-benzo[d][1,2,3]triazine] | 
5 | 1.60 | Fc1ccc(Nc2nnnc3ccccc23)cc1C(F)(F)F [Example 9, 4-(3-trifluoromethyl-4-fluoroanilino)-benzo[d][1,2,3]triazine] | 
6 | −2.67 | Clc1cc(Cl)cc(Nc2nnnc3ccccc23)c1 [Example 10, 4-(3,5-dichloroanilino)-1,2,3-benzotriazine] | 
7 | 45.98 | CCOc1cc2nnnc(Nc3ccccc3)c2cc1OC [Example 28, 6-methoxy-7-ethoxy-4-anilino-benzo[d][1,2,3]triazine] | inhibition at 10 µg/mL (Rat aortic ring; [1]): ~40%
8 |  | CCOc1cc2nnnc(Nc3ccc(C(F)(F)F)cc3)c2cc1OC [Example 35, 6-methoxy-7-ethoxy-4-(4-trifluoromethylanilino)-benzo[d][1,2,3]triazine] | inhibition at 10 µg/mL (Rat aortic ring; [1]): ~40%
9 | 43.56 | CCOc1cc2nnnc(Nc3ccc(C)cc3)c2cc1OC [Example 43, 6-methoxy-7-ethoxy-4-(4-methylanilino)-benzo[d][1,2,3]triazine] | Rat Aortic Ring Assay (10 ug/ml), result in words (Rat aortic ring): No significant inhibition
10 | −22.45 | CCCCCOc1cc2nnnc(Nc3ccccc3)c2cc1OC [Example 44, 6-methoxy-7-pentyloxy-4-anilino-benzo[d][1,2,3]triazine] | 
11 | −0.53 | CCCCCOc1cc2nnnc(Nc3cc(Cl)cc(Cl)c3)c2cc1OC [Example 46, 6-methoxy-7-pentyloxy-4-(3,5-dichloroanilino)-benzo[d][1,2,3]triazine] | 
12 | 2.13 | CCCCCOc1cc2nnnc(Nc3cccc(OC(F)(F)F)c3)c2cc1OC [Example 52, 6-methoxy-7-pentyloxy-4-(3-trifluoromethoxyanilino)-benzo[d][1,2,3]triazine] | 
13 | 3.20 | CCCCCOc1cc2nnnc(Nc3cccc(Cl)c3)c2cc1OC [Example 54, 6-methoxy-7-pentyloxy-4-(3-chloroanilino)-benzo[d][1,2,3]triazine] | 
14 | 10.42 | CCCCCOc1cc2nnnc(Nc3ccccc3F)c2cc1OC [Example 57, 6-methoxy-7-pentyloxy-4-(2-fluoroanilino)-benzo[d][1,2,3]triazine] | 
15 | −5.61 | CCCCCOc1cc2nnnc(Nc3cccc(Br)c3)c2cc1OC [Example 58, 6-methoxy-7-pentyloxy-4-(3-bromoanilino)-benzo[d][1,2,3]triazine] | 
16 | 7.75 | CCCCCOc1cc2nnnc(Nc3ccc(C)cc3)c2cc1OC [Example 60, 6-methoxy-7-pentyloxy-4-(4-methylanilino)-benzo[d][1,2,3]triazine] | 
17 | 10.73 | COc1cc2c(Nc3cc(F)cc(F)c3)nnnc2cc1OCCCCl [Example 64, 6-methoxy-7-chloropropoxy-4-(3,5-difluoroanilino)-benzo[d][1,2,3]triazine] | inhibition at 10 µg/mL (Rat aortic ring; [1]): > 50%
18 | 21.14 | COc1cc2c(Nc3cccc(Cl)c3)nnnc2cc1OCCCCl [Example 71, 6-methoxy-7-chloropropoxy-4-(3-chloroanilino)-benzo[d][1,2,3]triazine] | 
19 |  | COc1cc2c(Nc3ccc(F)c(Cl)c3)nnnc2cc1OCCCN1CCOCC1 [Example 94, 6-methoxy-7-(3-morpholinopropoxy)-4-(3-chloro-4-fluoroanilino)-benzo[d][1,2,3]triazine] | Rat Aortic Ring Assay (10 ug/ml), result in words (Rat aortic ring): No significant inhibition
20 |  | COc1cc2c(Nc3ccc(F)c(Cl)c3)nnnc2cc1OCCCN1CCCCC1.Cl [Example 95, 6-methoxy-7-(3-(piperidin-1-yl)-propoxy)-4-(3-chloro-4-fluoroanilino)-benzo[d][1,2,3]triazine hydrochloride] | Rat Aortic Ring Assay (10 ug/ml), result in words (Rat aortic ring): Vascular growth was significantly inhibited, vascular ring was dead.
21 |  | COc1cc2c(Nc3ccc(F)c(Cl)c3)nnnc2cc1OCCCN1CCN(C)CC1.Cl [Example 96, 6-methoxy-7-(3-N-methylpiperazin-1-yl-propoxy)-4-(3-chloro-4-fluoroanilino)-benzo[d][1,2,3]triazin-4-amine hydrochloride] | Rat Aortic Ring Assay (10 ug/ml), inhibition (Rat aortic ring; [1]): Vessel formation became less, about 30% inhibition

Row | SMILES | Kinase inhibition rate (VEGFR-2) (VEGFR-2) | other results
22 | CCCCOc1cc2nnnc(Nc3ccccc3)c2cc1OC [Example 11, 6-methoxy-7-butoxy-4-anilino-benzo[d][1,2,3]triazine] | −4.27 | 
23 | CCCCOc1cc2nnnc(Nc3ccc(Br)c(F)c3)c2cc1OC [Example 12, 6-methoxy-7-n-butoxy-4-(3-fluoro-4-bromoanilino)-benzo[d][1,2,3]triazine] | 9.09 | 
24 | CCCCOc1cc2nnnc(Nc3cc(F)cc(F)c3)c2cc1OC [Example 14, 6-methoxy-7-n-butoxy-4-(3,5-difluoroanilino)-benzo[d][1,2,3]triazine] | −0.80 | 
25 | CCCCOc1cc2nnnc(Nc3ccc(Cl)cc3)c2cc1OC [Example 16, 6-methoxy-7-n-butoxy-4-(4-chloroanilino)-benzo[d][1,2,3]triazine] | −12.03 | 
26 | CCCCOc1cc2nnnc(Nc3cccc(C(F)(F)F)c3)c2cc1OC [Example 17, 6-methoxy-7-n-butoxy-4-(3-trifluoromethylanilino)-benzo[d][1,2,3]triazine] | −5.34 | Rat Aortic Ring Assay (10 ug/ml), result in words (Rat aortic ring): No significant inhibition compared with the blank control
27 | CCCCOc1cc2nnnc(Nc3ccc(C(F)(F)F)cc3)c2cc1OC [Example 18, 6-methoxy-7-n-butoxy-4-(4-trifluoromethylanilino)-benzo[d][1,2,3]triazine] | 3.20 | Rat Aortic Ring Assay (10 ug/ml), result in words (Rat aortic ring): No significant inhibition
28 | CCCCOc1cc2nnnc(Nc3ccc(F)cc3)c2cc1OC [Example 26, 6-methoxy-7-n-butoxy-4-(4-fluoroanilino)-benzo[d][1,2,3]triazine] | 9.89 | 
